In patent publication US20250302788A1, “COMPOSITION COMPRISING CREATINE FOR USE IN THE TREATMENT OF POST VIRAL FATIGUE SYNDROME” (Alzchem Trostberg GmbH, priority 2022, published 2025):

Legend:
Post-COVID patients = assay: MFI-20 fatigue test, Example 2; assay type: in vivo, human; settings: plus breathing exercise
Description: The patient-reported outcomes for COVID-19-related signs and symptoms (e.g. headache, concentrating difficulties, anosmia, ageusia) were evaluated with VAS scale. Fatigue, comprising the conditions of the group general fatigue, physical fatigue, metal fatigue, reduced activity, and reduced motivation, was evaluated with a multidimensional fatigue inventory test (MFI-20 test, Smets E. M. et al., J. Psychosom. Res. 1995, 39 (3), 315).

[1] = both, human, in vivo, 3 months

CN(CC(=O)O)C(=N)N.O [Creatine + Breathing Exercise, creatine monohydrate]
General fatigue (MFI-20 score) (Post-COVID patients; 3 months): 12.3 | Mental fatigue (MFI-20 score) (Post-COVID patients; 3 months): 11.5 | Physical fatigue (MFI-20 score) (Post-COVID patients; 3 months): 12.2 | Reduced activity (MFI-20 score) (Post-COVID patients; 3 months): 12.8 | Reduced motivation (MFI-20 score) (Post-COVID patients; 3 months): 12.8 | General fatigue (MFI-20 score) (Post-COVID patients; Baseline): 11.5 | Mental fatigue (MFI-20 score) (Post-COVID patients; Baseline): 11.8 | Physical fatigue (MFI-20 score) (Post-COVID patients; Baseline): 12.3 | Reduced activity (MFI-20 score) (Post-COVID patients; Baseline): 12.5 | Reduced motivation (MFI-20 score) (Post-COVID patients; Baseline): 13.5 | Cohen's effect size (d) for creatine increment, right frontal grey matter [1]: 1.76 | Cohen's effect size (d) for creatine increment, vastus medialis muscle [1]: 0.77
